Consider 44 compounds from article PMC10766984, “Josephin domain containing 2 (JOSD2) promotes lung cancer by inhibiting LKB1 (Liver kinase B1) activity” (Signal Transduction and Targeted Therapy, 2024).

Structures can show the parent of a compound that is named as a salt.

The target in one data set is T1, GST-JOSD2 (Homo sapiens, UniProt Q8TAC2).
T1 sequence (Q8TAC2 1-188): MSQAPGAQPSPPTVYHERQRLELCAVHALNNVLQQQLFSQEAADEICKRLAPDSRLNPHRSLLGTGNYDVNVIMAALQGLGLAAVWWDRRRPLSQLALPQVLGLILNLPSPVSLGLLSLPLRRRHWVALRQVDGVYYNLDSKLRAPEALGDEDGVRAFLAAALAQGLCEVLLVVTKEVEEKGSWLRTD
Assay: not given
To be noted: 2 μM compound incubated with GST-JOSD2 at 37 °C for 30 min.
For the compound `N#CSc1cc(SC#N)c(N)nc1N` [PR-619, reference compound], the “JOSD2 activity inhibition ratio” value came out at 42.70%.

Turning to `O=C1C=CC(=O)c2c1nnn2Cc1cc(F)cc(Cl)c1` [HY032801], the “JOSD2 activity inhibition ratio” value was −0.98%.

Staying with this data set, now noted: compound concentration 2 μM; JOSD2 inhibitor screening, related to Fig. 7a.
On to `N#CSc1cc(SC#N)c(N)nc1N` [PR-619, reference compound], for which the “JOSD2 Activity Inhibition (%)” value stood at 42.70%.

As for `C=CCO/N=C1\c2ccccc2-c2nc(C#N)c(C#N)nc21` [DUBs-IN-3], the “JOSD2 Activity Inhibition (%)” value is given as 14.15%.

Take `CN1C2=CC(=O)/C(=N\NC(N)=O)C=C2CC1S(=O)(=O)[O-].[Na+]` (stereo not drawn) [AC-17 (Carbazochrome sodium sulfonate)]: the “JOSD2 Activity Inhibition (%)” value came to 9.85%.

Consider `C[C@H]1C[C@@H]2[C@H]([C@@H](O)C[C@@]3(C)[C@H]2CC[C@]3(O)C(=O)COC(=O)CCC(=O)[O-])[C@@]2(C)C=CC(=O)C=C12.[Na+]` [Methylprodnisolone Sodium Succinate], for which the “JOSD2 Activity Inhibition (%)” value was -78.62%.

For `Cl.N=C(N)NN` [Aminoguanidine hydrochloride], the “JOSD2 Activity Inhibition (%)” value is recorded as -35.00%.

For `O=C1c2ccccc2C(=O)c2oc(-c3cccnc3)nc21` [SJB3-019A], the “JOSD2 Activity Inhibition (%)” value amounted to 42.78%.

For the compound `O=C(c1ccc(F)cc1)C1CCN(CCn2c(=O)[nH]c3ccccc3c2=O)CC1` [Ketaneserin], the “JOSD2 Activity Inhibition (%)” value is -29.69%.

As to `C=CC(N)CCC(=O)O.Cl` (stereo not drawn) [Vigabatrin Hydrochloride], the “JOSD2 Activity Inhibition (%)” value is -16.37%.

In the case of `O=C(CCc1ccccc1)N1CCC(O)(Cn2cnc3cc(Cl)ccc3c2=O)CC1` [USP7-IN-1], the “JOSD2 Activity Inhibition (%)” value is recorded as -29.77%.

`O=C1/C(=C/c2ccc([N+](=O)[O-])cc2)CS(=O)(=O)C/C1=C\c1ccc([N+](=O)[O-])cc1` [Ubiquitin Isopeptidase Inhibitor I]: the “JOSD2 Activity Inhibition (%)” value was 1.00%.

As to `CC1(C)[C@@H](O[C@H]2O[C@H](C(=O)O)[C@@H](O)[C@H](O)[C@H]2O[C@@H]2O[C@H](C(=O)O)[C@@H](O)[C@H](O)[C@H]2O)CC[C@]2(C)[C@H]3C(=O)C=C4[C@@H]5C[C@@](C)(C(=O)O)CC[C@]5(C)CC[C@@]4(C)[C@]3(C)CC[C@@H]12.N.N` [Diammonium Glycyrrhizinate], the “JOSD2 Activity Inhibition (%)” value is recorded as -22.76%.

In the case of `CC(=O)O/N=C1\C(=O)N(Cc2cc(Cl)ccc2Cl)c2ccc(Cl)cc21` [LDN-57444], the “JOSD2 Activity Inhibition (%)” value was -16.75%.

For `C[C@]12C=CC(=O)C=C1CC[C@@H]1[C@@H]2[C@@H](O)C[C@@]2(C)[C@H]1CC[C@]2(O)C(=O)COP(=O)([O-])[O-].[Na+].[Na+]` [Prednisolone phosphate sodium], the “JOSD2 Activity Inhibition (%)” value stood at 36.74%.

Turning to HBX 19818, the “JOSD2 Activity Inhibition (%)” value is on record as -0.37%.

Turning to `CCO/N=C1\c2ccccc2-c2nc(C#N)c(C#N)nc21` [DUBs-IN-2], the “JOSD2 Activity Inhibition (%)” value was determined as 5.01%.

As for `CCc1c(-c2ccc3[nH]ncc3c2)cnc(N)c1-c1ccc(O)cc1` [GNE-6640], the “JOSD2 Activity Inhibition (%)” value was found to be 12.54%.

As to Tyloxapol, the “JOSD2 Activity Inhibition (%)” value amounted to 29.65%.

With `O=C1c2ccccc2C(=O)c2oc(-c3ccccc3)nc21` [SJB2-043], the “JOSD2 Activity Inhibition (%)” value was 13.43%.

For `CCCC(NC(=O)/C(C#N)=C/c1nc(Cl)ccc1Cl)c1ccc(OCCN2CCOCC2)cc1` (stereo not drawn) [EOAI3402143], the “JOSD2 Activity Inhibition (%)” value came to 29.05%.

The same data set, now with this note: read-out: JOSD2 Activity Inhibition (%).
On to `CCOC(=O)[N-]c1cn(N2CCOCC2)n[o+]1` [Molsidomine], for which the inhibition (commonly the relative decrease from the control value, in per cent) at 2 µM came to 35.8%.

Turning to `CC(=O)OCC(=O)[C@@]12OC3(CCCC3)O[C@@H]1C[C@H]1[C@@H]3CCC4=CC(=O)C=C[C@]4(C)[C@@]3(F)[C@@H](O)C[C@@]12C` [Amcinonide], the inhibition at 2 µM is -19.2%.

In the case of `COc1ccc(Cc2nccc3cc(OC)c(OC)cc23)cc1OC` [Papaverine hydrochloride], the inhibition at 2 µM was -27.9%.

With `C#CCN[C@@H]1CCc2ccccc21` [Rasagiline], the inhibition at 2 µM was found to be 29%.

Turning to `O=C1C=CC(=O)c2c1nnn2Cc1cc(F)cc(Cl)c1` [HY032801], the inhibition at 2 µM is -0.98%.

Turning to `CC(C)(C(=O)c1cccnc1)c1cccnc1` [Metyrapone], the inhibition at 2 µM was -6.94%.

As for `C[C@]12CCC(=O)C=C1C=C[C@@H]1[C@@H]2CC[C@@]2(C)[C@H]1CC[C@@]21CCC(=O)O1` [Canrenone], the inhibition at 2 µM was -22.3%.

As for `CCCSc1nc(N[C@@H]2C[C@H]2c2ccc(F)c(F)c2)c2nnn([C@@H]3C[C@H](OCCO)[C@@H](O)[C@H]3O)c2n1` [Ticagrelor], the inhibition at 2 µM worked out at 23.1%.

Take `CCc1ccc(CCOc2ccc(CC3SC(=O)NC3=O)cc2)nc1` (stereo not drawn) [Pioglitazone hydrochloride]: the inhibition at 2 µM is -5%.

Regarding `COc1ccc(O)cc1` [Leucobasal], the inhibition at 2 µM was -15.3%.

For the compound `COc1cc(CNC(=O)CCCC/C=C/C(C)C)ccc1O` [Capsaicin], the inhibition at 2 µM came out at 1.77%.

Turning to `CC(C)(Sc1ccc(CCN(CCCCC2CCCCC2)C(=O)NC2CCCCC2)cc1)C(=O)O` [GW7647], the inhibition at 2 µM was -29.7%.

For `CN1C[C@H](C(=O)N[C@]2(C)O[C@@]3(O)[C@@H]4CCCN4C(=O)[C@H](Cc4ccccc4)N3C2=O)C=C2c3cccc4[nH]cc(c34)C[C@H]21` [Ergotamine bitartrate], the inhibition at 2 µM was -5.18%.

As to `O=P(O)(O)C(O)(Cc1cccnc1)P(=O)(O)O` [Risedronate Sodium], the inhibition at 2 µM worked out at 4.34%.

Consider `C#CCN(C)Cc1ccccc1` [Pargyline], for which the inhibition at 2 µM was 29.8%.

As for `CCOC(=O)C1=C(COCCN)NC(C)=C(C(=O)OC)C1c1ccccc1Cl` (stereo not drawn) [Amlodipine Besylate], the inhibition at 2 µM is -24.3%.

On to `CC(C(=O)O)c1ccc2c(c1)Cc1cccnc1O2` (stereo not drawn) [Pranoprofen], for which the inhibition at 2 µM is -2.73%.

On to `CC(CCc1ccccc1)NC(C)C(O)c1ccc(O)cc1` (stereo not drawn) [Nylidrin hydrochloride], for which the inhibition at 2 µM is -31.9%.

With `COC(=O)[C@H](c1ccccc1Cl)N1CCc2sccc2C1` [Clopidogrel sulfate], the inhibition at 2 µM was -15%.

As for `CCCCC(=O)O[C@]1(C(=O)CO)[C@@H](C)C[C@H]2[C@@H]3CCC4=CC(=O)C=C[C@]4(C)[C@@]3(F)[C@@H](O)C[C@@]21C` [Betamethasone 17-valerate], the inhibition at 2 µM was -26%.

Consider `O=S(=O)(O)c1cc(O)ccc1O` [Etamsylate], for which the inhibition at 2 µM is -21.4%.

Regarding `CC(=O)OCC(=O)NCCCOc1cccc(CN2CCCCC2)c1` [Roxatidine Acetate hydrochloride], the inhibition at 2 µM was -20.8%.

As for `CC(=O)[C@H]1CC[C@H]2[C@@H]3C[C@H](C)C4=CC(=O)CC[C@]4(C)[C@H]3[C@@H](O)C[C@]12C` [Medrysone], the inhibition at 2 µM is -8.83%.

Take `CCN(CC)CCNC(=O)c1ccc(N)cc1` [Procainamide hydrochloride]: the inhibition at 2 µM is -20.4%.

For the next data set, the system named is LKB1-WT NSCLC cell lines. Description: Proliferation assay, panel of LKB1-WT cell lines. The data set is classed as cell-based. To be noted: indicated concentrations, 72 h. How it is done: The indicated cell lines were treated with indicated compounds at a series of concentrations for 72 h, followed by cell proliferation assay and colony formation assay. Black dashed line indicates 50% of cell survival.
For cell proliferation assay, cells infected with lentiviruses packaged indicated plasmids were seeded indicated number cells per well in 96-well plates. Cell number (absorbance) was then estimated by the sulforhodamine B (SRB) (Sigma-Aldrich, #230162) assay and the absorbance of the individual wells was determined at the optical density of 515 nm. For colony formation assay, cells infected with lentiviruses packaged indicated plasmids were seeded indicated number cells per well in 6-well plates. Two weeks later, cells were stained with SRB and the numbers of colonies having more than 50 cells were counted.
On to `O=C1C=CC(=O)c2c1nnn2Cc1cc(F)cc(Cl)c1` [HY032801], for which the “Cell viability / cell proliferation” value is recorded as “failed to inhibit cell proliferation”.

Another data set deals with PDX LUAD 110519 (Case 1). Description: Patient-derived xenograft study, intratumor JOSD2 shRNA. In kind it is in vivo, BALB/c-Nude mice.
Conditions: not given
As to the method:
(§1) PDXs were established in our lab using female BALB/c-Nude mice (4-5 weeks) implanted with tumor tissues from patients undergoing surgeries. […] Once tumors reached approximately 50 mm^3 in volume, mice were randomly assigned to scramble control or JOSD2 shRNA intra-tumor injection treatment. For the intratumor injection, a mice received an intratumorally injection of 5 ×10^6 lentiviruses in 20 μL sterile saline solution every two days.
A general note: In xenograft studies the graft and the host belong to different species.
Turning to “shJOSD2#1: gene-specific shRNA targeting JOSD2, GCAACTATGATGTCAATGTGA, delivered by lentiviral vector (lentiviral shRNA)”, the Inhibition ratio is recorded as 64.73% and the T/C (commonly the result in the treated group divided by that in the control group, in per cent) is 37.84%.

The same data set, now with this note: at the endpoint.
As for “shJOSD2#1: gene-specific shRNA targeting JOSD2, GCAACTATGATGTCAATGTGA, delivered by lentiviral vector (lentiviral shRNA)”, the “Tumor Weight” value came to 0.14 ± 0.07 g.

Still in this data set, the particulars now being: intratumor injection.
On to “shJOSD2#1: gene-specific shRNA targeting JOSD2, GCAACTATGATGTCAATGTGA, delivered by lentiviral vector (lentiviral shRNA)”, for which the RTV came out at 3.20 ± 1.37.

Another data set has as its system PDX LUAD 083120 (Case 2). The data set is described as above. In kind it is in vivo, BALB/c-Nude mice.
Conditions: not given
As to the method:
as §1
Turning to “shJOSD2#1: gene-specific shRNA targeting JOSD2, GCAACTATGATGTCAATGTGA, delivered by lentiviral vector (lentiviral shRNA)”, the Inhibition ratio was 52.24% and the T/C is 64.34%.

Staying with this data set, now noted: at the endpoint.
With “shJOSD2#1: gene-specific shRNA targeting JOSD2, GCAACTATGATGTCAATGTGA, delivered by lentiviral vector (lentiviral shRNA)”, the “Tumor Weight” value is given as 0.08 ± 0.02 g.

Staying with this data set, now noted: intratumor injection.
“shJOSD2#1: gene-specific shRNA targeting JOSD2, GCAACTATGATGTCAATGTGA, delivered by lentiviral vector (lentiviral shRNA)” displayed an RTV of 2.73 ± 0.63.
